{"source": "paper PMC3720812", "about": "“YjcC, a c-di-GMP Phosphodiesterase Protein, Regulates the Oxidative Stress Response and Virulence of Klebsiella pneumoniae CG43” (PLoS ONE, 2013)", "key": {"[1]": {"molecular_target": "T1, MrkJ (Klebsiella pneumoniae, UniProt G3FT02)", "T1 construct": "recombinant from pET30b-mrkJ, E. coli BL21(DE3), purified", "T1 sequence (G3FT02 entry or part of it)": "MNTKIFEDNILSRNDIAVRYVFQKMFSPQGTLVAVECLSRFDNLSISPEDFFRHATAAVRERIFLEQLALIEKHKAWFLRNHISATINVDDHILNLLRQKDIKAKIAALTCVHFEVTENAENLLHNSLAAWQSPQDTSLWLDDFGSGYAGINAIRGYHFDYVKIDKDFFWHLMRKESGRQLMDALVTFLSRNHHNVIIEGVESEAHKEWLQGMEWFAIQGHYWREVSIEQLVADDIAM", "assay": "release of p-nitrophenol at […] nm", "type": "biochemical", "details": "positive control enzyme; activity only in figure"}, "[2]": {"molecular_target": "T2, YjcC-EAL domain (Klebsiella pneumoniae, UniProt A6TGY2)", "T2 construct": "EAL domain only (C-terminal)", "T2 sequence (A6TGY2 entry or part of it)": "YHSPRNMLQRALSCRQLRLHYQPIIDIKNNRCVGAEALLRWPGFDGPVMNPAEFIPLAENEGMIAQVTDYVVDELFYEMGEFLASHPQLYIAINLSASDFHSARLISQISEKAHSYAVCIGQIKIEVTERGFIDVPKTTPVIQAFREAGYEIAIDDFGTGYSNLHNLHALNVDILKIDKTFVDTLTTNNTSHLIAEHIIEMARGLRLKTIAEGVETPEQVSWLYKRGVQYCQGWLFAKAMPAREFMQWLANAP", "assay": "release of p-nitrophenol at […] nm", "type": "biochemical", "details": "chromogenic model substrate; activity only in figure"}}, "data": [{"molecule": "O=[N+]([O-])c1ccc(OP(=O)(O)Oc2ccc([N+](=O)[O-])cc2)cc1", "note": "[bis(p-nitrophenyl) phosphate]", "values": [{"measurement": "specific PDE activity", "setting": "[1]", "value": "This activity is lower than the level of the recombinant MrkJ"}, {"measurement": "specific PDE activity", "setting": "[2]", "value": "the purified EAL domain protein exhibits PDE activity towards pNpp"}]}]}
